The target of test [1] is Diphosphomevalonate decarboxylase (Streptococcus pneumoniae serotype 2 (strain D39 / NCTC 7466), UniProt Q9FD53). Kind of test: S. pneumoniae DPM-DC inhibition retest, confirmation, biochemical, cuvette format, coupled NADH fluorescence (AID 1028). The test is classed as functional.
The target of test [2] is Peroxisome proliferator-activated receptor gamma/Nuclear receptor corepressor 2 (Homo sapiens, UniProt P37231+Q9Y618). Briefly: Counterscreen for NR2E3 inverse agonists: TR-FRET-based biochemical high throughput dose response assay to identify inverse agonists of the interaction between peroxisome proliferator-activated receptor gamma (PPARg) and nuclear receptor co-repressor 2 (NCOR2). The class given is functional. A general note: A counterscreen serves to expose hits that act by an unwanted route or on another target.

The target of test [3] is Photoreceptor-specific nuclear receptor (Homo sapiens, UniProt Q9Y5X4). Briefly: NR2E3 inverse agonists, dose response, biochemical, TR-FRET (AID 463256). The class given is functional. (TR-FRET usually uses a lanthanide donor and a delayed reading to cut background.)
Photoreceptor-specific nuclear receptor, sequence (Q9Y5X4 whole entry): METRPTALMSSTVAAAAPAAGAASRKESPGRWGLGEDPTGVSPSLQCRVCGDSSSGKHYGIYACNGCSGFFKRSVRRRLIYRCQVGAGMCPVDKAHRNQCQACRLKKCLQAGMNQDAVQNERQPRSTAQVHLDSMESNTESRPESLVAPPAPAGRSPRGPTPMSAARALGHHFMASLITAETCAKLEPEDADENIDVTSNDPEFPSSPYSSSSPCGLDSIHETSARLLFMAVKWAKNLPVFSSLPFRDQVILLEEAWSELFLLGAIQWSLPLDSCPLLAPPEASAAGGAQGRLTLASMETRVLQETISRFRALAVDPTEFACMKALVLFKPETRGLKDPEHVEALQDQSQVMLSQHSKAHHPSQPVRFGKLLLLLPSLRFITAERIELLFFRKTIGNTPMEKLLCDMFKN
Test [4] has as its target E3 ubiquitin-protein ligase Mdm2 (Homo sapiens, UniProt Q00987). Briefly: enhancers of MDM2-luciferase reporter signal, concentration-effect titration, project on inhibitors of MDM2 ubiquitin ligase, cellular assay, luminescent readout, 384-well plate format (AID 1394).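 Further: MDM2 E3 inhibitors raise luminescence so EC50 is for signal enhancement.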 The class given is functional. A general note: A reporter such as luciferase makes a cellular process visible.

For test [5], the target named is Dual specificity protein phosphatase 6 (Rattus norvegicus, UniProt Q64346). Briefly: MKP-3 phosphatase inhibitors, primary screen, biochemical, rat enzyme, in vitro (AID 425).
Dual specificity protein phosphatase 6, sequence (Q64346 whole entry): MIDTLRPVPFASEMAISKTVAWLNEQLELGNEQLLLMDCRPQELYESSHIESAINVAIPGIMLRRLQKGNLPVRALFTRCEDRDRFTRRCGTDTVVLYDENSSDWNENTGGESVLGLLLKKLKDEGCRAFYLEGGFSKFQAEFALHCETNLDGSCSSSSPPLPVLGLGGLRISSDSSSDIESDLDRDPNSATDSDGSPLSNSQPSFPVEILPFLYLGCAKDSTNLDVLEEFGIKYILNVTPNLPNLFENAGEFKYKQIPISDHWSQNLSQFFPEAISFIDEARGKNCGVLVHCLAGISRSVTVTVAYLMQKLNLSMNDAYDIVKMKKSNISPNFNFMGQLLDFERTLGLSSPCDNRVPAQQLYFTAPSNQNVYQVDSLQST
Test [6] addresses Luciferin 4-monooxygenase (Photinus pyralis, UniProt P08659). Briefly: firefly luciferase enzyme inhibitors, dose response, biochemical, luminescence (AID 1891).
Test [7] can be described thus: Luminescence Cell-Based Dose Confirmation HTS to Identify Inhibitors of Platelet Dense Granule Release. [Related pubchem assays: 1663 (Primary HTS), 1678 (Summary of Project)]. The class given is functional.
A short description of test [8]: Fluorescence Cell-Based Dose Response to Identify Inhibitors of Thrombin Receptor-Activating Peptide SFLLRN-Mediated P-Selectin Induction on Platelets. [Related pubchem assays: 1663 (Primary HTS), 1889 (retest at dose ), 1891 (counterscreen), 1678 (Project Summary)]. The test is classed as functional.
For another test, the target named is Prothrombin (Homo sapiens, UniProt P00734). Briefly: Thrombin 1536 HTS Dose Response Confirmation. [Related pubchem assays: 1046 (Thrombin 1536 HTS; hits were confirmed in this assay)]. The test is classed as functional.
Test [9] deals with Mitogen-activated protein kinase 10 (Homo sapiens, UniProt P53779). Kind of test: Dose response biochemical screening assay for inhibitors of c-Jun N-Terminal Kinase 3 (JNK3). [Related pubchem assays: 746 ].
Mitogen-activated protein kinase 10, sequence (P53779 whole entry): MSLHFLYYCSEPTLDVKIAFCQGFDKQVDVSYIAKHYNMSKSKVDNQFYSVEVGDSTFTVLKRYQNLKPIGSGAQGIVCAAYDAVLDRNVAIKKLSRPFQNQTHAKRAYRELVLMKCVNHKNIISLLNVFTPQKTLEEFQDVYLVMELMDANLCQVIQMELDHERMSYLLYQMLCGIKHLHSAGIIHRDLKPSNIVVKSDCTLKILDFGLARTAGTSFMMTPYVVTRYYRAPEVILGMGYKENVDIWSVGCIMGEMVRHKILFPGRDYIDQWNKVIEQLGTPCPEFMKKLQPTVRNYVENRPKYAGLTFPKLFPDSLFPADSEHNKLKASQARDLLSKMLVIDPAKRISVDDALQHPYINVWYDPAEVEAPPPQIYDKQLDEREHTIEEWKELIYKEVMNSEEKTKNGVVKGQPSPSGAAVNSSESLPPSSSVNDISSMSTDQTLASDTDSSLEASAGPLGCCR
The target in the next test is T1, Aminopeptidase N (Plasmodium falciparum FcB1/Columbia, UniProt O96935).
T1 sequence (O96935 whole entry): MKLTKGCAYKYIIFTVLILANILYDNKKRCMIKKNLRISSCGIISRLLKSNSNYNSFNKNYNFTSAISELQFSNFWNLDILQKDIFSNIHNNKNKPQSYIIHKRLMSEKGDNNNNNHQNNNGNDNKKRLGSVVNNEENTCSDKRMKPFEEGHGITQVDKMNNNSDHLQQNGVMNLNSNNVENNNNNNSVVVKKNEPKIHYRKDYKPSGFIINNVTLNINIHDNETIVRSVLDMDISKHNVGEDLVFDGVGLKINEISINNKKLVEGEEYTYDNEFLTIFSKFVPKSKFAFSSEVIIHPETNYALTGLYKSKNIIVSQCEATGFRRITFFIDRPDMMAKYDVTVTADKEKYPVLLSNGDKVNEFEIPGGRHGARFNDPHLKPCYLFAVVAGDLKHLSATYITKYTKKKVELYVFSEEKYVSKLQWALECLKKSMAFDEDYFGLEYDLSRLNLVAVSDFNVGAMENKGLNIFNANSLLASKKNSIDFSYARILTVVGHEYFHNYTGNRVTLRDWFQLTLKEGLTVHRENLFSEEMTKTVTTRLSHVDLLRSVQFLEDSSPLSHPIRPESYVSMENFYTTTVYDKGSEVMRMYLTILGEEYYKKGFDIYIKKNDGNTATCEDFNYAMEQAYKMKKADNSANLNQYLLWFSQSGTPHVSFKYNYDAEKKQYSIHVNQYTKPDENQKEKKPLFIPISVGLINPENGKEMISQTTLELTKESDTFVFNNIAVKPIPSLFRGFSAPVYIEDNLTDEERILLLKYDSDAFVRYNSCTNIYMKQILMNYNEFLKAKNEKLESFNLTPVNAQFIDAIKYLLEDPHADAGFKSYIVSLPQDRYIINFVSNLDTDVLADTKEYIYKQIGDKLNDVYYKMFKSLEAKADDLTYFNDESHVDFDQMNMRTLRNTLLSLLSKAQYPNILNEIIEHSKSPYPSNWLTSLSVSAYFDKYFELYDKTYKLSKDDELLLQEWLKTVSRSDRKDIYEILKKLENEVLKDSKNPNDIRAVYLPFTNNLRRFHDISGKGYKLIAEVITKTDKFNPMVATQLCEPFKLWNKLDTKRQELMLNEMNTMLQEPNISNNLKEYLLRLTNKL
Kind of test: P. falciparum M1AAP inhibitors, biochemical, fluorogenic H-Leu-NHMec substrate, 1536-well (AID 1445). The arrangement: species or system Plasmodium falciparum 3D7, 3D7.

In test [10] the target is T2, SUMO-activating enzyme (Homo sapiens, UniProt Q9UBT2). Kind of test: SUMOylation inhibitor hit validation, confirmation, SUMOylation inhibitor project, biochemical, AlphaScreen (AID 2018). The test is classed as functional.
T2 sequence (Q9UBE0 whole entry): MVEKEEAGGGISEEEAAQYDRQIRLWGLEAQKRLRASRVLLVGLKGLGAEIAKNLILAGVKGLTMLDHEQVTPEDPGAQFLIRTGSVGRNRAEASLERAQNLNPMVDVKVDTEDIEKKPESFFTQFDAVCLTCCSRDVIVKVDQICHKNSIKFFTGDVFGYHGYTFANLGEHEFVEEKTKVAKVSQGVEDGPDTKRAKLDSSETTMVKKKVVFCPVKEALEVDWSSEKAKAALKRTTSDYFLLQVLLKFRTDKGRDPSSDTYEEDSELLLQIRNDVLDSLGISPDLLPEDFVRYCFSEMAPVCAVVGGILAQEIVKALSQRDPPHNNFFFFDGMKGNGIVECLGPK
T2 sequence (Q9UBT2 whole entry): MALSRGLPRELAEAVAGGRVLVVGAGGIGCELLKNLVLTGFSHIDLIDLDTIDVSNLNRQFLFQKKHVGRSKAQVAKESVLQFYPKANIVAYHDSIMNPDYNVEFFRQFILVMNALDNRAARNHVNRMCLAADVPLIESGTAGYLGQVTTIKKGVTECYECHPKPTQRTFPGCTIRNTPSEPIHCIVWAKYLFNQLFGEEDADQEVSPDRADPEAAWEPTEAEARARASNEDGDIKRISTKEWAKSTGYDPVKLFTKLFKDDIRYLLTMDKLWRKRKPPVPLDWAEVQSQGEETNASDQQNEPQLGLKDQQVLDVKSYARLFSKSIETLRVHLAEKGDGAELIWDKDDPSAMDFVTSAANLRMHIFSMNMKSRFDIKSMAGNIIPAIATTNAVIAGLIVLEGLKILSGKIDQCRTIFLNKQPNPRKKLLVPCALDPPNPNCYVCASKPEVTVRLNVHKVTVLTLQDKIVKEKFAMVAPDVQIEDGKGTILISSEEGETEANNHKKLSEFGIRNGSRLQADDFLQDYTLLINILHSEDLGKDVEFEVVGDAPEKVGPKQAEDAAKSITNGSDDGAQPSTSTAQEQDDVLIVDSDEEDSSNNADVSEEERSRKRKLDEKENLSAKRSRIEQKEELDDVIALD
Test [11] concerns the target T2, SUMO-activating enzyme. Briefly: inhibitors of in vitro SUMOylation cascade, primary screen, biochemical, HTRF, uHTS (AID 2006). The test is classed as protein-complex assay.
The target of test [12] is Heat shock protein HSP 90-alpha (Homo sapiens, UniProt P07900). Kind of test: Luminescence-based dose response biochemical high throughput screening assay for inhibitors of the Heat Shock Protein 90 (HSP90). [Related pubchem assays: 1831 (Summary AID.), 1846 (Confirmation screen.), 1789 (Primary screen.)].
A further test has as its target SUMO E1/E2 (Homo sapiens, UniProt P63279+Q9UBE0+Q9UBT2). Briefly: SAR analysis of SUMOylation using HTRF in an in-Vitro dose response assay. [Related pubchem assays (depositor defined):AID2006, AID2011, AID2018, AID2069, AID2658]. The class given is functional.
The target in test [13] is T3, Tyrosyl-DNA phosphodiesterase 2 (Homo sapiens, UniProt O95551).
T3 sequence (O95551 whole entry): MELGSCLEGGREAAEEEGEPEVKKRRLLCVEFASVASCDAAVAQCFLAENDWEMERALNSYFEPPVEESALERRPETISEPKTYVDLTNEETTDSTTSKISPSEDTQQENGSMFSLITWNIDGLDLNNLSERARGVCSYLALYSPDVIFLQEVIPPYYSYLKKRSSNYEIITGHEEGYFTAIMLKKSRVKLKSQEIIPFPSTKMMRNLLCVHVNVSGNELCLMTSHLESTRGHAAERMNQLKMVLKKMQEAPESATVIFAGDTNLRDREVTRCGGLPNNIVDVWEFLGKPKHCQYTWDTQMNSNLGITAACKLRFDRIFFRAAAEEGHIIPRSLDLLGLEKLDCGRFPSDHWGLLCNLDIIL
Kind of test: human TDP2 enzyme inhibitors, dose response, biochemical, epi absorbance, IC50 (AID 743297).

Another test deals with Danio rerio. Kind of test: In Vivo Angiogenesis Dose-Response Confirmation. [Related pubchem assays: 732 (Assay preceding this confirmatory assay.)]. The class given is functional, organism-based.
The nature of test [14]: HeLa 2N DNA content increase, dose response, cell-based, IC50 (AID 1117349). The class given is functional.
A short description of test [15]: Concentration-dependent survival of SW480 colon cancer line, luminescence detection with CellTiter-Glo, half-maximal inhibitory concentration (AID 1117338). The test is classed as functional.
The nature of test [16]: RKO cell viability reduction, dose response, CellTiter-Glo luminescence (AID 1117322). The test is classed as functional.
The nature of test [17]: cytotoxicity toward HCT116 cells – cell-based, CellTiter-Glo luminescence, IC50, dose response (AID 1117332). As to conditions: HCT-116. The test is classed as functional.
Test [18] can be described thus: SNU-C1 cell viability reduction, dose response, CellTiter-Glo luminescence (AID 1117323). The class given is functional, cell-based.
The nature of test [19]: cytotoxicity toward Colo320 cells – cell-based, CellTiter-Glo luminescence, IC50, dose response (AID 1117334). As to conditions: COLO 320. The class given is functional.
Test [20] in a line: HeLa 4N DNA content increase, dose response, cell-based, IC50 (AID 1117351). The test is classed as functional.
Test [21] can be described thus: cytotoxicity toward HT-29 cells – cell-based, CellTiter-Glo luminescence, IC50, dose response (AID 1117330). The class given is functional.
Test [22] can be described thus: CellTiter-Glo luminescent dose response of DLD-1 viability loss (AID 1117352). The test is classed as functional.

Activity calls are given as the source filed them.

E3 ubiquitin-protein ligase Mdm2, sequence (Q00987 whole entry): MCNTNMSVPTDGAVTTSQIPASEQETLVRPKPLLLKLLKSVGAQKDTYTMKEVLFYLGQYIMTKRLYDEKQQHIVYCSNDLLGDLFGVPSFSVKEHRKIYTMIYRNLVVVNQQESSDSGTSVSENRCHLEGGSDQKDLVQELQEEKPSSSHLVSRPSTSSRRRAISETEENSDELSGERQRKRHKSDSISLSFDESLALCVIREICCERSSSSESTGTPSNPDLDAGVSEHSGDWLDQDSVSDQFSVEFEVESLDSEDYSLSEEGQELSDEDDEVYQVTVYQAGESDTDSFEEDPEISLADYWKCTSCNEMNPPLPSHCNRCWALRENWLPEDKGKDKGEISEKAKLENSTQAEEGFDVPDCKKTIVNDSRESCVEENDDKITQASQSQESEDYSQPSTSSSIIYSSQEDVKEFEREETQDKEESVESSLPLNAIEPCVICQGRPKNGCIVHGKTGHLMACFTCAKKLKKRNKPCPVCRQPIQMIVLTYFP
Luciferin 4-monooxygenase, sequence (P08659 whole entry): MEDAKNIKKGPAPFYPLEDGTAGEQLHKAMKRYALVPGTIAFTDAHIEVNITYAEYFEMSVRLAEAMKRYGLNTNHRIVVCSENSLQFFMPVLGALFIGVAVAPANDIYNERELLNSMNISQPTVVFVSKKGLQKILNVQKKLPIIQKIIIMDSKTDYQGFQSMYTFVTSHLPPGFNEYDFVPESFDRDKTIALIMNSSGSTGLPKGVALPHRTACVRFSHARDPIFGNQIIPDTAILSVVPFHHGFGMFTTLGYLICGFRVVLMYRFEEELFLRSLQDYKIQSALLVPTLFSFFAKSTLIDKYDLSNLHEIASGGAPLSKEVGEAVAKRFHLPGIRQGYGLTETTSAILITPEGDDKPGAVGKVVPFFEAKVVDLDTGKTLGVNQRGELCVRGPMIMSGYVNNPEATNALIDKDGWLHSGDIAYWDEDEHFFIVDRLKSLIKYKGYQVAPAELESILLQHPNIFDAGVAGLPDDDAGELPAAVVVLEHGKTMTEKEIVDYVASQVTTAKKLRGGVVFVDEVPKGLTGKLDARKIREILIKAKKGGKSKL
Diphosphomevalonate decarboxylase, sequence (Q9FD53 whole entry): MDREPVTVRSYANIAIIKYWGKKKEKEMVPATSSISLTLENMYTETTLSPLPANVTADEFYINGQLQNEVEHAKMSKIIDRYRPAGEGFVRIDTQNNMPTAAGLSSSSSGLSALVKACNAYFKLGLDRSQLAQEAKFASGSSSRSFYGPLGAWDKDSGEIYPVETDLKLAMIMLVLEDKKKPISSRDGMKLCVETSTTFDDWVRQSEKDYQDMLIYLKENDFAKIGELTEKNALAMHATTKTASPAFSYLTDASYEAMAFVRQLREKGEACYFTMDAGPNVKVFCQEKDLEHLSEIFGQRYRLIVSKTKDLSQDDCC
SUMO E1/E2, sequence (Q9UBE0 whole entry): as the sequence (Q9UBE0 whole entry) above
SUMO E1/E2, sequence (Q9UBT2 whole entry): as the sequence (Q9UBT2 whole entry) above
SUMO E1/E2, sequence (P63279 whole entry): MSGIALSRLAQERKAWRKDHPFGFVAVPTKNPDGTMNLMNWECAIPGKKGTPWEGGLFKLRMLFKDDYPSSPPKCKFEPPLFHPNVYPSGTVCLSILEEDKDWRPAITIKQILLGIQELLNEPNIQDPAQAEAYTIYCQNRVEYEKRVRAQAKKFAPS

Regarding `Cc1ccc(-n2sc3ccccc3c2=O)cc1S(=O)(=O)N1CCCC1`, in test [1], the IC50 is 4.15 µM (active).

For `CC(=O)Nc1cccc(Oc2nc(C(F)(F)F)nc3ccccc23)c1`, the IC50 is > 39.8 µM (not active) in [2] and 18.7 µM (not active) in test [3].

As for `COc1ccc(-c2nc(C)c(C(C)=O)n2O)cc1`, the EC50 in test [4] was 12.3 µM (not active).

`CCN(CC)CCCN1C(=O)C(O)=C(C(=O)c2ccccc2)C1c1ccccn1` (stereo unspecified): the IC50 in [5] is on record as > 100 µM (not active).

On to `Cc1nc(O)c(C#N)c(C)c1CSc1ncccn1`, for which the concentration for a half-maximal effect (EC50) in [6] was > 112 µM (not active); in [7], 3.68 µM (active); in test [8], < 1 µM (active).

Regarding `Cc1ccc2c(c1)CC1(CN2C)C(=O)OC2(CCCCC2)OC1=O`, the results for the IC50 (at Prothrombin; in test [9]) were 4.14 µM (active) and > 93.1 µM (not active), respectively.

Turning to `C=CCn1c(NS(=O)(=O)c2ccccc2)c(S(=O)(=O)c2ccc(C)cc2)c2nc3ccccc3nc21`, the half-maximal inhibitory concentration (IC50) at Aminopeptidase N is 36.2 µM (active); at SUMO-activating enzyme [10], 880 nM (active); at SUMO-activating enzyme [11] it was 1.5 µM (active); in [12], 1.61 µM (active); on SUMO E1/E2 it was 4.29 µM (active); in [13], 68.1 µM (inactive).

As for `Fc1ccc(C(OCCN2CCN(CCCc3ccccc3)CC2)c2ccc(F)cc2)cc1`, the IC50 in the test on Danio rerio was 5.73 µM (not active); in [14], > 10 µM (inactive); in test [15], 2.07 µM (active); in test [16], 113 nM (active); in test [17] it was 4.87 µM (active); in [18] it was 1.82 µM (active). The IC50 was > 20 µM (inactive) in test [19], > 10 µM (inactive) in [20], 1.49 µM (active) in [21] and 903 nM (active) in test [22].

As a reminder, the IC50 is the concentration at which inhibition is half-maximal. As usually defined, the EC50 is the concentration giving half of the maximal effect.

These data come from ChEMBL document CHEMBL1201862, “PubChem BioAssay data set” (2004).
